These results are taken from patent US20250213744A1, “ANTIMICROBIAL HYDROGEL COMPOSITION” (priority 2022, published 2025).

In one data set the test system is S. aureus (H560). Description: Modified Kirby-Bauer test, zone of inhibition. It is filed as cell-based, Staphylococcus aureus. The settings on record: for Ratio of bacterial zone of inhibition following application of plasma jet to antimicrobial loaded gel over non-plasma activated gel: antimicrobial loaded PAA/PVA composite gel. The source says: (§1) The Ar-CAP jet shown in FIG. 14 consisted of an internal steel needle electrode (outer diameter=0.9 mm, inner diameter=0.6 mm, length 51 mm) sealed inside a quartz tube (inner diameter=1.5 mm, outer diameter=3 mm). Two external copper electrodes of length 4 mm 5.6 cm from electrode, spaced 5.4 cm apart and 6.6 cm from the bottom of the tube. Ar gas was kept at 1.0 standard litres per minute (SLPM) and generated at 10 kV at 23.5 kHz. Voltage and current waveforms were monitored using oscilloscope. The gap distance was 1.5 cm and the Ar-CAP jet was stationary unless otherwise stated. 31
(§2) Bacterial overnight was made as outlined, subcultures were made in fresh MH broth absorbance corrected to OD 0.5 (˜[…] CFU/mL). 100 μL was added to Muller-Hinton agar to and spread to create a bacterial lawn. Gel discs were placed in the centre of the plate and either treated with Ar-CAP or left untreated. Plates were incubated at 37° C. for 18 h, facing up to prevent the gel from moving. Zone of inhibition (ZOI) was measured and corrected to the diameter of the gel.
(§3) The Kirby-Bauer (KB) test is a standard test used to assess the susceptibility of bacteria to different antimicrobials by measuring the zone of bacterial growth inhibition (ZOI) due to the out diffusion of the antimicrobial agent from a sterile disc soaked in that compound. In this case, a modified form of the KB test was performed. Plasma activate antimicrobial loaded, composite hydrogels were compared to non-activated antimicrobial loaded, composite hydrogels and non-loaded, composite hydrogels with and without plasma activation.

The next data set has as its system P. aeruginosa (PAO1). Description: Modified Kirby-Bauer test, zone of inhibition. The data set is classed as cell-based, Pseudomonas aeruginosa. Particulars: for Ratio of bacterial zone of inhibition following application of plasma jet to antimicrobial loaded gel over non-plasma activated gel: antimicrobial loaded PAA/PVA composite gel.
Text: as §1, §2, §3

Data set [1] can be described thus: Passive leaching of antimicrobial from PAA composite gel, judged qualitatively from ZOI data. The settings on record: without CAP; judged from ZOI and ZOI ratios. The source says:
The variation in bacterial susceptibility to the plasma jet applied to the unloaded gel is interesting and is thought to related to the varying susceptibility of different species to the RONS generated by the CAP. Sensitivity to different antimicrobials varied as a function of both the antimicrobial moiety and the bacterial species. In this case, P. aeruginosa is seen to be sensitive to Ag^+ passively leaching from the composite gel, while S. aureus and E. faecalis are not.
Relative passive leaching of different antimicrobials can be qualitatively assessed by looking at FIG. 5-7. The difficulty in cross comparison of the different antimicrobial susceptibility of the bacterial species to the various antimicrobials tested. The key comparison here is to look at the ratio of ZOI of the antimicrobial loaded composite gel (1st column in graphs below) to the zone of inhibition for the same loaded gel following application of the CAP jet 2nd column).

In the next data set the test system is E. faecalis (JH2-2). The data set can be described thus: Modified Kirby-Bauer test, zone of inhibition. It is filed as cell-based, Enterococcus faecalis. Particulars: for Ratio of bacterial zone of inhibition following application of plasma jet to antimicrobial loaded gel over non-plasma activated gel: antimicrobial loaded PAA/PVA composite gel.
Text: as §1, §2, §3

For data set [2] the following is noted: two secondary amine groups; net positive charge at pH 7; cited from earlier work.
The subject of data set [3] is clinical strains of P. aeruginosa. Particulars: many clinical strains of P. aeruginosa; cited from earlier work.
Data set [4] deals with clinical strains of S. aureus. The settings on record: many clinical strains of S. aureus; cited from earlier work.
Data set [5] is described as follows: Ninhydrin assay, gentamicin release from PAA/PVA composite hydrogel with and without Ar-CAP jet. It is filed as physicochemical. On the procedure: 0.1 g of the drug loaded PAA powder was mixed with dry PVA (5% (w/v)) to obtain a homogenous powder and then is dissolved at 95° C. for 1 h. 20 ml of the PAANaPA/PVA solution was then added to a […] diameter petri dish and spread evenly. The gels were placed into a −20° C. freezer until frozen and removed and defrosted at 25° C. this process was repeated twice more to enable cryo-crosslinking of the PVA.
The Ar-CAP jet shown in FIG. 14 consisted of an internal steel needle electrode (outer diameter=0.9 mm, inner diameter=0.6 mm, length 51 mm) sealed inside a quartz tube (inner diameter=1.5 mm, outer diameter=3 mm). […] Voltage and current waveforms were monitored using oscilloscope. […]
Aminoglycoside was made up in pH 7.4 assay buffer (39.1 mL 0.2 M sodium hydroxide solution was added to 50 mL 0.2 M monobasic potassium phosphate solution and made up to a final volume of 200 mL with DI H2O) to starting concentration of 1 mg/mL. […] 200 μL was aliquoted into a round bottom 96-well plate and the absorbance was read at 560 nm (Clariostar, Omega). […]
Gentamicin is an aminoglycoside antibiotic used both systemically and topically. […] Ninhydrin was used to quantify release of gentamicin both prior to CAP treatment (passive release) and following CAP treatment. […] The Ninhydrin assay was used to quantify release of gentamicin with (triggered release) and without CAP treatment (passive release).

Where “and” joins values, the source holds several entries; their conditions need not be identical. Equal values may be shown once. Entries after “also recorded” stand apart in the source; their conditions may differ.

On to `O=[N+]([O-])[O-].[Ag+]` [Silver, Silver Nitrate], for which the results for the “Ratio of bacterial zone of inhibition following application of plasma jet to antimicrobial loaded gel over non-plasma activated gel” value in the data set on S. aureus (H560), in the data set on P. aeruginosa (PAO1) and in the data set on E. faecalis (JH2-2) (E. faecalis) were 7, 1.5 and 6, respectively. Also, the “sensitivity to antimicrobial passively leaching from the composite gel” value was “are not” in the data set with S. aureus (H560) (no CAP); “sensitive” with P. aeruginosa (PAO1) (no CAP); “are not” in the data set on E. faecalis (JH2-2) (E. faecalis, no CAP). The “passive release / leaching from the PAA composite gel (qualitative)” value (from here on “passive release / leaching”) in data set [1] is reported as “much greater degree of passive out-diffusion”.

As to Cetrimide, the “Ratio of bacterial zone of inhibition following application of plasma jet to antimicrobial loaded gel over non-plasma activated gel” value in the data set on S. aureus (H560) stood at 1.8; with P. aeruginosa (PAO1), 2.7; with E. faecalis (JH2-2) (E. faecalis), 1.3. The “passive release / leaching” value in data set [1] is “much greater degree of passive out-diffusion”. Also, the “sensitivity of E. faecalis compared with P. aeruginosa and S. aureus” value in the data set on E. faecalis (JH2-2) (loaded composite gel) is on record as “less sensitive”.

As for Polymyxin B, the “Ratio of bacterial zone of inhibition following application of plasma jet to antimicrobial loaded gel over non-plasma activated gel” value in the data set on S. aureus (H560) is given as 34; with P. aeruginosa (PAO1) it was 13; in the data set on E. faecalis (JH2-2) (E. faecalis) it was greater than 30. In addition, the “passive release / leaching” value in data set [1] is on record as “relatively no passive release; also recorded: little passive leaching”.

For the compound gentamicin, the “Ratio of bacterial zone of inhibition following application of plasma jet to antimicrobial loaded gel over non-plasma activated gel” value with S. aureus (H560) was 8.2; with P. aeruginosa (PAO1), 3.6; with E. faecalis (JH2-2) (E. faecalis) it was greater than 10. In addition, in data set [2], the “pka of secondary amine groups” value is 8.8 and 9.9. Further, the “Minimal Inhibitory Concentration (MIC)” value in data set [3] and in data set [4] was 2000 to 4000 mg/L throughout. Also, the “gentamicin released from gel into the surrounding PBS (triggered release)” value in data set [5] (after two minutes treatment with Ar CAP jet) came out at 61 mg/mL. Moreover, the “gentamicin passively released from gel” value in data set [5] (without CAP treatment) is given as 1.1 mg/mL. Further, in data set [1], the “passive release / leaching” value is listed as “little passive leaching”.
